{"source": "patent US8729279B2", "about": "“Agent for promoting osteoblast differentiation, pharmaceutical composition for promoting bone formation, and food for special dietary use containing auraptene analog as active ingredient” (Erina Co., Inc., priority 2010, dated 2014)", "key": {"RAW264 cells [1]": {"system": "RAW264 cells", "assay": "Cell number (MTT) in osteoclast differentiation culture", "type": "cell-based, mouse", "conditions": "RANKL 50 ng/ml, 3 days, FIG. 7 open bars", "protocol": "(§1) RAW264 cells were suspended in α-MEM and plated in a 96-well microplate at a concentration of 3×10^3 cells/well. The compounds of the present invention at each concentration and the osteoclast differentiation-inducing factor (RANKL) were added at 50 ng/ml and the cells were cultured for 3 days in an incubator at 37° C. and 5% CO2. After incubation, the cells were fixed with a 10% formalin solution and refixed with 100% ethanol.\nIn addition, after similarly cultured, the cells were counted by a conventional method using a MTT reagent, and the value calculated by taking the control as 100 was shown."}, "MC3T3-E1 cells [2]": {"system": "MC3T3-E1 cells", "assay": "Effect on osteoblast proliferation (MTT)", "type": "cell-based, mouse", "conditions": "compound 1, 3, 10 or 30 μM, 3 days, FIG. 1", "protocol": "The effect on osteoblast proliferation was determined by the following method.\nMC3T3-E1 cells were suspended in α-MEM and plated on each well of a 96-well microplate at a concentration of 2×10^3 cells/well. After overnight incubation in 10% fetal bovine serum (FBS)-containing α-MEM under a condition of 37° C. and 5% CO2, the culture medium was replaced with 10% FBS-containing α-MEM containing a compound at a concentration of 1, 3, 10 or 30 μM and cultured for 3 days. The cells cultured in the same manner using the medium containing the same amount of solvent only were used as a control.\nAdded was 3-(4,5-Dimethylthiazol-2-yl)-2,5-diphenyltetrazolium bromide (MTT) (5 mg/ml in PBS) in one-tenth amount of the culture medium 2 hours before the completion of incubation. After 2-hour cultivation, the medium was removed, formazan formed by viable cells was dissolved in DMSO and the absorbance at 570 nm (reference wavelength of 630 nm) was measured with a plate reader. The relative cell numbers were determined by calculating the values taking the control as 100 (average plus or minus standard deviation of 4 wells or more; the same hereinafter)."}, "MC3T3-E1 cells [3]": {"system": "MC3T3-E1 cells", "assay": "Cell number (MTT) in initial osteoblast differentiation culture", "type": "cell-based, mouse", "conditions": "compound 1-100 μM, 6 days, FIG. 2 open bars", "protocol": "(§2) MC3T3-E1 cells which are mouse pre-osteoblastic cells were suspended in α-MEM and plated on each well of a 96-well microplate at a concentration of 5×10^3 cells/well. After 2-day pre-incubation in 10% FBS-containing α-MEM under a condition of 37° C. and 5% CO2, the culture medium was replaced with 10% FBS-containing α-MEM containing a compound at a concentration of 1, 3, 10, 30 or 100 μM and the cells were cultured for 6 days. During the incubation, the culture medium was replaced once in every 3 days. The cells cultured in the same manner using the medium without coumarin compounds were used as a control.\nAt the end of incubation, the cell number was measured by the same method as above using a MTT reagent and the value was calculated by taking the control as 100."}, "MC3T3-E1 cells [4]": {"system": "MC3T3-E1 cells", "assay": "Initial osteoblast differentiation, alkaline phosphatase (ALP) activity", "type": "cell-based, mouse", "conditions": "compound 1-100 μM, 6 days; FIG. 2 solid bars", "protocol": "as §2\n(§3) In addition, the activity of alkaline phosphatase (ALP), a marker enzyme of initial osteoblast differentiation, was measured by the following method. After incubation, the cells were fixed with cold methanol, and the dishes were dried. 100 μl of buffer of pH 8.5 containing 2 mM magnesium chloride and 100 mM Tris-HCl, with 6.7 mM p-nitrophenylphosphate as a substrate, was dispensed in each well and allowed to react at 37° C. for 30 minutes. Then, 100 μl of 0.1 N sodium hydroxide was added to terminate the reaction, followed by measurement with a plate reader of the absorbance at 405 nm, which was determined to be the ALP activity. The value was calculated by taking the control as 100."}, "RAW264 cells [5]": {"system": "RAW264 cells", "assay": "Osteoclast differentiation, TRAP activity", "type": "cell-based, mouse", "conditions": "RANKL 50 ng/ml, 3 days; FIG. 7 solid bars", "protocol": "RAW264 cells (mouse monocyte/macrophage cell line, cell No. RCB0535) were purchased from RIKEN Cell Bank. The osteoclast differentiation-inducing factor (RANKL) was obtained from Wako Pure Chemical Industries, Ltd. Others used were the same as above.\nas §1\nAfter the dishes were dried, as an index of differentiation, the activity of tartrate-resistant acid phosphatase (TRAP), a marker enzyme of osteoclasts, was measured by the following method.\nFor measurement of the TRAP activity, a buffer containing 10 mM tartrate and 50 mM citrate of pH 4.6, with 3.7 mM p-nitrophenylphosphate as a substrate, was used. […] Thereafter, 100 μl of 0.1 N sodium hydroxide was added to terminate the reaction, followed by measurement of the absorbance at 405 nm with a plate reader. Each absorbance was determined to be the TRAP activity, and the value calculated by taking control as 100 was shown."}, "MC3T3-E1 cells [6]": {"system": "MC3T3-E1 cells", "assay": "Osteoblast calcification, alizarin red S staining", "type": "cell-based, mouse", "conditions": "compared with control", "protocol": "3. Effects on Osteoblast Calcification MC3T3-E1 cells were suspended in α-MEM and plated in each well of a 96-well microplate at a concentration of 5×10^3 cells/well and pre-incubated for 2 days in 10% FBS-containing α-MEM under a condition of 37° C. and 5% CO2. Thereafter, the culture medium was replaced with 10% FBS-containing α-MEM containing a compound at a concentration of 1, 3, 10 or 30 μM, 50 μg/ml ascorbic acid and 10 mM β-glycerophosphoric acid, and the cells were cultured for 10 days. During the incubation, the culture medium was changed once in every 3 or 4 days.\nAfter incubation, the cells were fixed with 70% ethanol, the dishes were dried, and calcium deposits were stained with a 1% alizarin red S solution. The image of the stained plate was obtained using a scanner. In addition, the degree of stain (degree of calcification) was evaluated by naked eyes."}, "[7]": {"system": "Postmenopausal osteoporosis model mice", "assay": "Bone formation-promoting effect in vivo, ovariectomized mice, femur pQCT", "set-up": "species or system mouse", "conditions": "OVX mice, 50 mg/kg/day oral, 30+30 days, versus OVX-Con", "protocol": "Postmenopausal osteoporosis model mice were prepared by ovariectomy and test compounds were administrated to the mice with decreased bone mass, to examine the effects on bone formation in vivo level.\nSlc; ddY mice (4 week-old, female) were purchased from Chubu Kagaku Shizai Co., Ltd. After 2 days, ovariectomy (“OVX”) or sham operation (“Sham”) was performed under Nembutal anesthesia. After the mice were bred for 1 month in order to decrease bone mass due to the progression in bone resorption, a part of mice in each group (OVX: N=5, Sham: N=3) were killed to collect the femurs. The rest of mice in the ovariectomy (“OVX”) group were divided into two groups: solvent administration group (“OVX-Con”: N=6) and auraptene administration group (50 mg/kg/day, oral administration, “OVX-AUR”: N=6) and bred for another month together with the sham operation group (Sham-Con: N=6). Thereafter, the mice were killed to collect the femurs.\nThe bone mineral content density and the like of the collected femurs were measured by means of pQCT (peripheral Quantitative Computed Tomography) using a bone density measuring apparatus (trade name “XCT Research SA+”, manufactured by Stratec Medizintechnik GmbH)."}, "MC3T3-E1 cells [8]": {"system": "MC3T3-E1 cells", "assay": "Comparison with BMP-2 and effect of BMP signal inhibitors on ALP activity", "type": "cell-based, mouse", "conditions": "6 days", "protocol": "as §3\nUpon the addition of the sample, the cells were cultured for 6 days in the presence or absence of 10 ng/ml Noggin, a BMP inhibitor, or 1 μM Dorsomorphin, an inhibitor of type I BMP receptor (ALK) (the above concentrations are the final concentrations), and the ALP activities were measured in the same manner as above."}, "MC3T3-E1 cells [9]": {"system": "MC3T3-E1 cells", "assay": "Expression of genes related to osteoblast differentiation, real-time RT-PCR", "type": "cell-based, mouse", "conditions": "compared with control", "protocol": "The effects on the expression of various genes related to osteoblast differentiation were analyzed using the real-time RT-PCR method.\nMC3T3-E1 cells were plated in each well of a 6-well plate (Greiner) at a concentration of 1.5×10^5 cells/well and cultured in the same manner as above. […] After incubation, the culture medium was removed and the cells were washed with PBS. Thereafter, “ISOGEN” (trade name, Wako Pure Chemical Industries, Ltd.) was added in an amount of 1 ml/well and the cells were collected. RNA purification was conducted according to the protocol described in the package insert of “ISOGEN”.\nReverse transcription was performed using “PrimeScript RT-PCR Kit” (trade name, TaKaRa) with 2 μg of purified RNA according to the protocol described in the package insert, thereby synthesizing the cDNA sample.\nReal-time PCR was performed using “FastStart Universal SYBR Green Master (Rox)” (trade name, Roche) according to the protocol described in the package insert under the following conditions: incubation at 50° C. for 2 min and at 95° C. for 10 min, followed by 50 cycles of 15 sec at 95° C. and 1 min at 60° C. Data were analyzed with “ABI PRISM 7300 sequence detection system” (trade name, Applied Biosystems).\nPrimers used were as described in the following Table 2.\nData analysis was performed as follows using β-actin as an endogenous control gene by the comparative Ct method.\nΔ Ct=(Ct of target gene)−(Ct of endogenous control gene)\nΔΔ Ct=(Δ Ct of target sample)−(Δ Ct of reference sample)\nRelative expression level of target gene of target sample to that of reference sample=2 (^−ΔΔ^Ct)"}}, "data": [{"smiles": "CC(C)=CCC/C(C)=C/COc1ccc2ccc(=O)oc2c1", "note": "[auraptene, 2H-1-benzopyran-2-one, 7-[[(2E)-3,7-dimethyl-2,6-octadiene-1-yl]oxy]-]", "values": [{"measurement": "cell number of RAW264 cells (control as 100)", "setting": "RAW264 cells [1]", "value": "did not show a significant influence"}, {"measurement": "cell number of MC3T3-E1 cells (relative, control as 100)", "setting": "MC3T3-E1 cells [2]", "value": "little change in cell number"}, {"measurement": "cell viability of MC3T3-E1 cells (control as 100)", "setting": "MC3T3-E1 cells [3]", "value": "little influence on cell viability"}, {"measurement": "ALP activity (control as 100)", "setting": "MC3T3-E1 cells [4]", "value": "increased in a concentration-dependent manner"}, {"measurement": "TRAP activity as an index of osteoclast differentiation", "setting": "RAW264 cells [5]", "value": "do not affect osteoclast differentiation"}, {"measurement": "calcified portions stained red", "setting": "MC3T3-E1 cells [6]", "value": "remarkably increased compared with control"}, {"measurement": "trabecular bone mineral density", "setting": "[7]; FIG. 6A", "value": "tended to be high"}, {"measurement": "total bone mineral density", "setting": "[7]; FIG. 6B", "value": "tended to be high"}, {"measurement": "cortical bone periosteal circumference", "setting": "[7]; FIG. 6C", "value": "tended to be long"}, {"measurement": "cortical bone endosteal circumference", "setting": "[7]; FIG. 6D", "value": "tended to be long"}, {"measurement": "effect of promoting ALP activity in presence of Dorsomorphin", "setting": "MC3T3-E1 cells [8]; Dorsomorphin 1 μM, auraptene 30 μM or BMP-2 25 ng/ml", "value": "diminished"}, {"measurement": "effect of promoting ALP activity in presence of Noggin", "setting": "MC3T3-E1 cells [8]; Noggin 10 ng/ml, auraptene 30 μM or BMP-2 25 ng/ml", "value": "diminished"}, {"measurement": "effect of promoting ALP activity", "setting": "MC3T3-E1 cells [8]; auraptene 30 μM versus BMP-2 25 ng/ml, FIG. 4", "value": "equivalent to or more than that with BMP-2 (25 ng/ml)"}, {"measurement": "expression of ALP gene", "setting": "MC3T3-E1 cells [9]; auraptene 30 μM or BMP-2 50 ng/ml, FIG. 5A", "value": "increased"}, {"measurement": "expression of osteocalcin gene", "setting": "MC3T3-E1 cells [9]; auraptene 30 μM or BMP-2 50 ng/ml, FIG. 5B", "value": "increased"}, {"measurement": "expression of Runx 2 gene", "setting": "MC3T3-E1 cells [9]; auraptene 30 μM or BMP-2 50 ng/ml, FIG. 5C", "value": "increased"}, {"measurement": "expression of Osterix gene", "setting": "MC3T3-E1 cells [9]; auraptene 30 μM or BMP-2 50 ng/ml, FIG. 5D", "value": "increased"}, {"measurement": "expression of BMP-2 gene", "setting": "MC3T3-E1 cells [9]; auraptene 30 μM, FIG. 5E", "value": "increased"}, {"measurement": "expression of BMP-4 gene", "setting": "MC3T3-E1 cells [9]; auraptene 30 μM, FIG. 5F", "value": "increased"}]}]}
